Measured values: a melting point compilation (Tetko et al.; mined from patent text by program, amines drawn as free bases though some values may be those of a salt)

First: CCN(CC)C(=O)c1nc2n(n1)-c1ccc(Cl)cc1C(c1ccccc1)=NC2
Second: CC(=O)c1c(C)nc2ccccc2c1NCc1cccc(Br)c1
The melting point of the first is higher: 175 to 177 °C for the first, 109 °C for the second.

First: COc1ccc(CNc2nc(CCCCC(=O)O)nc3sc(C)c(C)c23)cc1Cl
Second: CCOc1nnc(NCc2ccc(OC)c(Cl)c2)c2cc(Cl)ccc12
The melting point of the first is higher: 156 °C for the first, 111 to 115 °C for the second.

First: N#CNc1cc(Cl)ccc1N1CCOCC1
Second: CC(=O)NC[C@H]1CN(c2ccc(N3CCC(F)(CC#N)CC3)c(F)c2)C(=O)O1
The melting point of the first is higher: 305 to 308 °C for the first, 210 to 212 °C for the second.

First: NC(=O)c1c(Cl)c(-c2ccccc2)n2c1CN(S(=O)(=O)Nc1ccc(F)cc1)CC2
Second: NC(=O)c1c(Cl)c(-c2ccccc2)n2c1CN(C(=O)Nc1cccc(C(=O)O)c1)CC2
The melting point of the first is lower: 183 to 185 °C for the first, 263 to 265 °C for the second.

First: CC(=O)CC(=O)N1CC(c2ccccc2)c2ccccc21 (stereo not given)
Second: CC(=O)Nc1cccc(OCc2ccccc2)c1CCOC(C)=O
The melting point of the first is lower: 88 to 89 °C for the first, 118 to 119 °C for the second.

First: Cc1ccc(N(c2ccccc2)c2ccc3c4c(cccc24)CC3)cc1
Second: CCc1cn2ccccc2c1S(=O)(=O)c1ccc(OS(=O)(=O)c2ccc(C)cc2)cc1
The melting point of the first is lower: 147 to 148 °C for the first, 190 °C for the second.

First: CCc1oc2ccccc2c1C(=O)c1ccc(OCC(=O)O)cc1
Second: CCCCc1oc2ccccc2c1C(=O)c1ccc(OCCN(CC)CC)c(I)c1
The melting point of the first is higher: 172 to 175 °C for the first, 100 to 102 °C for the second.

First: CCOCc1nc2c(N)nc3ccccc3c2n1CC1(OCCS(C)(=O)=O)CCCC1
Second: Nc1nc2cccnc2c2c1nc(CCO)n2CC1(O)CCOCC1
The melting point of the first is lower: 163 to 165 °C for the first, 226 to 227 °C for the second.

First: CC1(C)CCC(C)(C)c2cc(-c3cc(-c4ccc(C(=O)O)cc4)ccc3OCCNC3CC3)ccc21
Second: COCCNC(=O)c1ccc(CN2C(=O)C3(COc4cc5c(cc43)CCO5)c3ccccc32)cc1 (stereo not given)
The melting point of the first is higher: 233 °C for the first, 182 to 183 °C for the second.

Compared with `Nc1ncc(-c2ccc(=O)[nH]n2)c(-c2ccc(F)c(F)c2)n1`, `Nc1ccc(-c2ncnn2-c2ccc(F)cc2)cc1` is lower in melting point: 307 °C for the first, 128 to 130 °C for the second.

First: Cc1ccc(/C=C/C2=CCN(Cc3ccc(Cl)cc3)CC2)cc1
Second: Clc1ccc(C(=Cn2cncn2)c2ccc(Cl)cc2)cc1
The melting point of the first is lower: 122 to 124 °C for the first, 126 to 128 °C for the second.

Compared with `Brc1cnc(-c2ccc(OCc3ccccc3)cc2)nc1`, `CC(=O)OC(c1ccc(OCc2ccccc2)cc1)C(F)(F)F` (stereo not given) is lower in melting point: 153 to 155 °C for the first, 85 to 87 °C for the second.

Compared with `Cc1c(Nc2c(C#N)cncc2-c2coc(CN3CCN(C)CC3)c2)ccc2[nH]ccc12`, `Cc1nc(C)c(-c2[nH]nc3c2C(=O)c2c(NC(=O)NN4CCN(C)CC4)cccc2-3)s1` is higher in melting point: 129 °C for the first, 278 °C for the second.

First: O=C(O)c1oc(-c2ccccc2Cl)cc(=O)c1Br
Second: CNC(=O)c1cc(C#N)cc(C)c1NC(=O)c1cc(Br)nn1-c1ccccc1Cl
The melting point of the first is lower: 205 to 207 °C for the first, 242 to 243 °C for the second.

First: Cc1c(N)cc(C(C)(C)C)c2c1CC(C)(C)O2
Second: CCCCOC(=O)C(c1ccc(O)c(C(C)(C)C)c1)c1ccc(O)c(C(C)(C)C)c1
The melting point of the first is lower: 115 to 116 °C for the first, 124 °C for the second.

First: NC(=O)N1C(=O)C(C(=O)c2ccc(Br)s2)c2cc(Cl)ccc21 (stereo not given)
Second: CSc1nc(N)n(C(=O)c2ccc(Cl)cc2)n1
The melting point of the first is higher: 228 to 229 °C for the first, 175 to 177 °C for the second.

First: N#Cc1cccc2c1C(=O)C(O)=C(O)C2=O
Second: CC(C)OC(=O)c1ncn2c1CN(C)C(=O)c1ccccc1-2
The melting point of the first is higher: 305 to 312 °C for the first, 190 to 192 °C for the second.

First: CC(O)Cn1c(CO)nc(C(C)C)c1Sc1cc(Cl)cc(Cl)c1 (stereo not given)
Second: CC(C)(C)OC(=O)CCc1cc(S(C)(=O)=O)cc(-c2nc(=O)c3ccc(Cl)cc3s2)n1
The melting point of the first is lower: 159 to 161 °C for the first, 184 °C for the second.

First: CCCCCCCCc1ccc(C(=O)CBr)cc1
Second: CCCCCCCN(CCCCCSc1nc(-c2ccccc2)c(-c2ccccc2)[nH]1)C(=O)NCCC
The melting point of the first is lower: 33 to 34 °C for the first, 78 to 80 °C for the second.

First: COc1ccc(C(=O)Nc2ccc(Cl)c(Cl)c2)cc1N
Second: Nc1cc2c(Nc3ccc(Br)c(Cl)c3)ncnc2cn1
The melting point of the first is lower: 179 to 182 °C for the first, 272 to 275 °C for the second.

First: Cc1oc(-c2ccccc2)nc1COc1ccc(COc2ncccc2CC#N)cc1
Second: CCCCC(=O)N(Cc1ccc(-c2ccccc2-c2nnn[nH]2)cc1Br)[C@H](C(=O)OCc1ccccc1)C(C)C
The melting point of the first is higher: 149 to 150 °C for the first, 104 to 106 °C for the second.

First: O=C1NC2(C(=O)CCl)C=CC1C2 (stereo not given)
Second: CCOC(=O)CCCc1oc(=O)[nH]c1-c1ccc(Cl)s1
The melting point of the first is lower: 86 to 88 °C for the first, 95 to 96 °C for the second.

First: NN=C1c2ccccc2-c2ccc(F)cc21
Second: OC1(c2ccccc2)c2ccccc2C2=NC3CCCCC3N21 (stereo not given)
The melting point of the first is lower: 161 to 165 °C for the first, 176 to 178 °C for the second.

First: COc1cccc([C@@]23CCC[C@@H]2C(=O)N(C)CCC3)c1 (relative stereo)
Second: CON1C(=O)CC2(CCN(C(=O)C3=CN(Cc4ccccc4)C=CC3)CC2)C1=O
The melting point of the first is higher: 96 to 99 °C for the first, 57 to 73 °C for the second.

Compared with `C=CCNC(=O)n1nc(-c2ccccc2)cc1NC(=O)CC(=O)C(F)(F)F`, `CC(=O)Nc1ccc(C(=O)Nc2ccccc2NC(=O)CN)cc1` is higher in melting point: 114 to 116 °C for the first, 215 to 218 °C for the second.

Compared with `CCn1c(=O)c2c(nc(/C=C/c3ccc(OCC(C)=O)c(OC)c3)n2C)n(CC)c1=O`, `COCOc1ccc(O)cc1OC` is lower in melting point: 206 °C for the first, 70 to 72 °C for the second.

First: Cc1cccc(C(=O)NC(C)C)c1[N+](=O)[O-]
Second: CCNc1ncccc1C(=O)Nc1c(C)ccnc1Cl
The melting point of the first is higher: 126 to 128 °C for the first, 122 to 124 °C for the second.

First: Cc1nc2c3c(c(C(N)=O)cc2n1C)CCC(c1ccccc1)N3 (stereo not given)
Second: c1ccc(C2NCCc3sccc32)cc1 (stereo not given)
The melting point of the first is higher: 311 to 319 °C for the first, 79.8 to 80.7 °C for the second.

First: CCOC(=O)Nc1cc(COC(=O)Nc2ccc(N(CCCl)CCCl)cc2)cc(Nc2c3ccccc3nc3ccccc23)c1
Second: C=C(CN1c2ccccc2Sc2ccc(Cl)cc21)c1ccc(C(=O)Nc2ccccc2N)cc1
The melting point of the first is higher: 178 to 182 °C for the first, 126 to 128 °C for the second.

First: Nc1ccc(CN2C(=O)[C@H]3CCC[C@H]3Nc3ccccc32)cc1 (relative stereo)
Second: O=Cc1ccc2ccn(C3CCN(CCc4ccccc4F)CC3)c2c1
The melting point of the first is higher: 149 to 150 °C for the first, 130 to 131 °C for the second.

Compared with `CC(C)(C(=O)c1ccccc1OCC(=O)O)N1CCN(c2ccncc2)CC1`, `O=C(c1cn(-c2ccccc2)nc1-c1ccc([N+](=O)[O-])o1)N1CCCC1` is lower in melting point: 278 to 279 °C for the first, 236 to 238 °C for the second.

Compared with `CC(C)(C)C(C)(O)C(Cn1cncn1)Oc1ccc(Cl)cc1` (stereo not given), `COc1ccc(NC(C)CC(=O)NC(=O)OC(C)(C)C)cc1` (stereo not given) is lower in melting point: 150 °C for the first, 70 to 71 °C for the second.

First: COCCN(C)Cc1cc(C(=O)Nc2nc3c(OC)ccc(C4COCCOC4)c3s2)ccn1
Second: COC[C@H]1O[C@H](ONC(=O)c2nc(-c3ccc(Cl)c(OC)c3F)cc(N)c2Cl)[C@H](OC)[C@@H](OC)[C@@H]1OC
The melting point of the first is lower: 100 to 107 °C for the first, 184 to 187 °C for the second.

First: COC(=O)c1cc(F)c(O)nc1O
Second: COC(=O)c1ccc2c(Br)n[nH]c2c1
The melting point of the first is higher: 208 to 213 °C for the first, 186 to 189 °C for the second.

First: CC(=O)OC(CN(Cc1ccccc1)Cc1ccccc1)c1cc(C#N)c2c(c1)CCN2C(C)=O (stereo not given)
Second: CN(C)C1(c2ccccc2)CCC2(OCCc3c2[nH]c2ccccc32)C(Sc2ccccc2)C1 (stereo not given)
The melting point of the first is lower: 108 to 109 °C for the first, 228 to 233 °C for the second.

Compared with `NCCCCn1cnc2c(N)ncnc21`, `O=C(O)Cn1c(-c2cc(Br)co2)nc2cccnc21` is higher in melting point: 62 to 64 °C for the first, 229 to 231 °C for the second.

Compared with `COC(=O)Nc1cc(F)c(C#N)cc1F`, `COC(=O)c1ccc(-n2ccc(C)n2)cc1C(F)(F)F` is lower in melting point: 129 °C for the first, 59 to 61 °C for the second.

First: CCC(Oc1cccc(C(F)(F)F)c1)C(=O)NCc1ccccc1Cl (stereo not given)
Second: CCOC(=O)c1cc(Oc2ccc3c(C(=O)Nc4cccc(C(F)(F)F)c4)cccc3c2)ncn1
The melting point of the first is lower: 66 to 68 °C for the first, 194 °C for the second.

First: Cc1cc(Cn2nc(C(F)(F)F)cc2C(F)(F)F)ccc1NC(=O)c1cccc(I)c1C(=O)NC(C)(C)CS(C)(=O)=O
Second: CS(=O)(=O)c1cnc(NC(=O)c2ccccc2O)s1
The melting point of the first is lower: 104 to 107 °C for the first, 282 to 283 °C for the second.

Compared with `CCOC(=O)c1ocnc1C`, `CCOCc1nc(C(=O)OCC)c(C(=O)OCC)[nH]1` is higher in melting point: 31 to 33 °C for the first, 60 to 61 °C for the second.

First: CCOc1ccc2c(c1)C(=O)N(CCCCBr)S2(=O)=O
Second: CCOc1ccc(NC(=O)NCCc2ccccn2)cc1
The melting point of the first is lower: 105 to 108 °C for the first, 163 to 164 °C for the second.

First: COC(=O)c1scc(-c2ccccc2)c1S(N)(=O)=O
Second: CC(=O)Oc1c(Cl)nc(-c2ccccc2)nc1Cl
The melting point of the first is higher: 172 to 175 °C for the first, 145 to 147 °C for the second.

Compared with `CCOC(=O)Cc1c(C)[nH]c(C(=O)c2ccccc2)c1C`, `CCOC(=O)CNC(=O)c1ccc(O)cc1` is higher in melting point: 126 to 129 °C for the first, 205 to 209 °C for the second.

First: CCCCC1CCc2c(OCc3ccc4ccccc4n3)cccc2C1O (stereo not given)
Second: CCCCc1ncc(/C=C(\Cc2cccs2)C(=O)O)n1Cc1ccccc1Cl
The melting point of the first is lower: 130 to 133 °C for the first, 175 to 177 °C for the second.

First: Cn1nc(-c2ccccc2Cl)nc1-c1ccc(Oc2ccc(C(F)(F)F)cn2)cc1Cl
Second: CCN1Cc2cccnc2N(c2cccc(C(F)(F)F)c2)C1=O
The melting point of the first is lower: 104 to 108 °C for the first, 155 to 157 °C for the second.

First: COC(=O)c1cn2c(NCCCCCCNS(=O)(=O)c3ccccc3[N+](=O)[O-])nsc2n1
Second: CNS(=O)(=O)c1ccc(Oc2ccc(NC(C)=O)cc2)cc1
The melting point of the first is lower: 148 to 149 °C for the first, 183 to 184 °C for the second.

First: Cc1cc(C(F)(F)F)nc(OCC2CO2)c1C(=O)C1=C(O)C2CCC(C2)C1=O (stereo not given)
Second: N#Cc1cc(-c2ccc3c(c2)C(C2CC2)(C2CC2)OC(=O)N3)cs1
The melting point of the first is lower: 54 to 56 °C for the first, 244 to 245 °C for the second.

`Clc1cn2cc(Br)ccc2n1` and `CS(=O)(=O)c1ccc(-c2[nH]c(S)nc2-c2ccc(F)cc2)cc1` cannot be ordered by melting point: 155 to 159 °C for the first, 158 to 161 °C for the second.

First: O=C1NCC(c2cn3c4c(cccc24)CCC3)=C1c1c[nH]c2ccccc12
Second: O=C1N=C(N2CCOCC2)SC1=Cc1cc(-c2ccccc2)cc(-c2ccc(O)c(C34CC5CC(CC(C5)C3)C4)c2)c1
The melting point of the first is lower: 260 to 262 °C for the first, 315 to 320 °C for the second.

Compared with `C#CCn1cc(CO)sc1=O`, `O=C(O)c1ccc(C(=O)O)c(OC(F)(F)C(F)OC(F)(F)C(F)(OC(F)(F)C(F)(F)C(F)(F)F)C(F)(F)F)c1` (stereo not given) is higher in melting point: 97 to 98 °C for the first, 236 to 239 °C for the second.
